The target in assay [1] is Transcription factor p65 (Homo sapiens) (UniProt Q04206). Nature of the assay: Potentiation of TNF-alpha-induced NF-kappaB p65 nuclear translocation in HUVEC cells by immunostaining. It is filed as cell-based.
For assay [2] the target is unchanged. Nature of the assay: Induction of NF-kappaB p65 nuclear translocation in HUVEC cells by immunostaining. In kind it is cell-based.

The source made the active and inactive calls. The calls are words filed in the database; no cut-off is given here.

Sequence of Transcription factor p65 (Homo sapiens) (Q04206 whole entry): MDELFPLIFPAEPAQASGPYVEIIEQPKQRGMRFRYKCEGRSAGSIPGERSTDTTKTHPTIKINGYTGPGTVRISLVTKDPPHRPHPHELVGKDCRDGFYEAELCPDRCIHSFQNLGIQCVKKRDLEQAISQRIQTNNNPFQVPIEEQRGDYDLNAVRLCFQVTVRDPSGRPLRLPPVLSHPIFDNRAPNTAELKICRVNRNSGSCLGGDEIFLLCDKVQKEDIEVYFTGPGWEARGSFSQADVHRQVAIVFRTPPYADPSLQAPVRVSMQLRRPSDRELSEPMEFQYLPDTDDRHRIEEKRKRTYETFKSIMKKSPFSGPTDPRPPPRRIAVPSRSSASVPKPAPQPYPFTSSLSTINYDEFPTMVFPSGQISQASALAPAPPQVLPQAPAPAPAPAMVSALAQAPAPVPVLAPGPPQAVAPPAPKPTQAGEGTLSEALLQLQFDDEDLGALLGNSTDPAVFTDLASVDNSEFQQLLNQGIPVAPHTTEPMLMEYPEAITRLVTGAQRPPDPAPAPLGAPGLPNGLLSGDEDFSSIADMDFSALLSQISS

With `COc1ccc2nc(-c3cccs3)nc(NCCN3CCOCC3)c2c1`, the result in assay [1] and in assay [2] was inactive.

Consider `COc1ccc2nc(-c3cccs3)nc(NCc3ccccc3Cl)c2c1`, for which the result in assay [1] and in assay [2] was inactive.

`COc1ccc(CCNc2nc(-c3cccs3)nc3ccc(OC)cc23)cc1`: the outcome in assay [1] and in assay [2] was inactive.

For `COc1cccc2nc(-c3cccs3)nc(NN3C(=O)CC(C)C3=O)c12` (configuration not stated), the result in assay [1] and in assay [2] was inactive.

As to `COc1ccc2nc(-c3cccs3)nc(N3CCOCC3)c2c1`, the result in assay [1] and in assay [2] was inactive.

Take `COc1ccc2nc(-c3cccs3)nc(NNS(=O)(=O)c3ccc(C)cc3)c2c1`: the result in assay [1] and in assay [2] was inactive.

The values are drawn from ChEMBL document CHEMBL1136844, “Discovery of novel small molecule cell type-specific enhancers of NF-kappaB nuclear translocation” (Bioorg Med Chem Lett, 2009).
